Measured values taken from EPA's ToxRefDB 2.

Key:
rat [1] = settings: Subchronic oral toxicity in rodents, other, Feed, dose end: 13 week, group: systemic
rat [2] = settings: Combined chronic toxicity/carcinogenicity, sprague dawley, Oral, Feed, dose end: 24 month, group: systemic
mouse [3] = settings: Carcinogenicity; cd1; Oral; Feed; dose end: 18 month; group: systemic; systemic / in life observation / body weight / body weight gain + systemic / in life observation / clinical signs / fur (altered appearance…
rat [4] = settings: Prenatal developmental toxicity study, sprague dawley, Oral, Gavage/Intubation, dose end: 21 GD
rat [5] = settings: Prenatal developmental toxicity study, sprague dawley, Oral, Gavage/Intubation, dose end: 21 GD; remark: listed apart in the source
rat [6] = settings: Subchronic oral toxicity in rodents, sprague dawley, Feed, dose end: 13 week, group: systemic
rat [7] = settings: Prenatal developmental toxicity study, sprague dawley, Oral, Feed, dose end: 22 GD
rat [8] = settings: Subchronic oral toxicity in rodents, sprague dawley, Feed, dose end: 14 week, group: systemic
rabbit = settings: Prenatal developmental toxicity study, new zealand white, Oral, Gavage/Intubation, dose end: 28 GD
dog [9] = settings: Chronic toxicity, beagle, Oral, Feed, dose end: 52 week, group: systemic
rat [10] = settings: Subchronic oral toxicity in rodents, sprague dawley, [Not Specified], dose end: 90 day, group: systemic
mouse [11] = settings: Subchronic oral toxicity in rodents, cd1, Feed, dose end: 91 day, group: systemic
dog [12] = settings: Subchronic oral toxicity in nonrodent, beagle, Feed, dose end: 13 week, group: systemic, systemic / hematology / anemia / anemia - hemolytic + systemic / hematology / erythrocyte (rbc) count differential / erythrocyte (rbc) + …
[13] = systemic / hematology / erythrocyte (rbc) count differential / erythrocyte (rbc) + systemic / hematology / hematocrit (hct) / hematocrit (…
[14] = systemic / in life observation / body weight / body weight + systemic / in life observation / body weight / body weight gain + systemic / in…
[15] = systemic / pathology microscopic / spleen / pigmentation
[16] = group: developmental, systemic / in life observation / body weight / fetal weight
[17] = group: maternal, systemic / in life observation / body weight / body weight + systemic / in life observation / body weight / body weight gain + systemic / in…
[18] = systemic / pathology microscopic / spleen / hematopoietic cell proliferation + systemic / pathology microscopic / spleen / pigmentation
[19] = group: maternal, systemic / in life observation / body weight / body weight gain
[20] = systemic / in life observation / body weight / body weight gain
[21] = systemic / in life observation / body weight / body weight gain + systemic / in life observation / body weight / body weight + systemic / in…
[22] = group: developmental, developmental / developmental malformation / bone / incomplete ossification + systemic / in life observation / body weight / fetal weight
[23] = group: maternal, systemic / in life observation / body weight / body weight gain + systemic / in life observation / food consumption / food consumption + …
[24] = systemic / hematology / erythrocyte (rbc) count differential / erythrocyte (rbc) + systemic / hematology / heinz body / heinz body + …
[25] = systemic / organ weight / liver / absolute + systemic / organ weight / liver / relative to body weight + systemic / organ weight / liver / …
[26] = systemic / hematology / methemoglobin / methemoglobin

COC(=O)N(C(=O)N1CO[C@@]2(C(=O)OC)Cc3cc(Cl)ccc3C2=N1)c1ccc(OC(F)(F)F)cc1 [Indoxacarb] was tested, and the LEL (rat [1]; [13]) was 1.5 mg/kg/day, the LOAEL (rat [1]; [14]) was 6.25 mg/kg/day and the NEL (rat [1]; [14]) was 0.75 mg/kg/day. The NOAEL (rat [1]; [14]) was 3 mg/kg/day, the LOAEL (rat [2]; [13]) was 2.13 mg/kg/day and the NOAEL (rat [2]; [13]) was 1.04 mg/kg/day. The LEL (rat [2]; [15]) was 0.798 mg/kg/day, the LEL (mouse [3]) was 13.8 mg/kg/day and the LOAEL (mouse [3]) was 13.8 mg/kg/day. It also gave an NEL (mouse [3]) of 2.63 mg/kg/day, an NOAEL (mouse [3]) of 2.63 mg/kg/day and an LEL (rat [4]; [16]) of 500 mg/kg/day. It also gave an LOAEL (rat [4]; [16]) of over 1000 mg/kg/day, an NEL (rat [4]; [16]) of 100 mg/kg/day and an NOAEL (rat [4]; [16]) of at least 1000 mg/kg/day. For the same compound, the LEL (rat [4]; [17]) was 100 mg/kg/day, the LOAEL (rat [4]; [17]) was 100 mg/kg/day and the NEL (rat [4]; [17]) was 10 mg/kg/day. It also gave an NOAEL (rat [4]; [17]) of 10 mg/kg/day, an LEL (rat [5]; [16]) of 4 mg/kg/day and an LOAEL (rat [5]; [16]) of 4 mg/kg/day. For the same compound, the NEL (rat [5]; [16]) was 2 mg/kg/day, the NOAEL (rat [5]; [16]) was 2 mg/kg/day and the LEL (rat [5]; [17]) was 4 mg/kg/day. It also gave an LOAEL (rat [5]; [17]) of 4 mg/kg/day, an NEL (rat [5]; [17]) of 2 mg/kg/day and an NOAEL (rat [5]; [17]) of 2 mg/kg/day. It also gave an LOAEL (rat [6]; [14]) of 3.78 mg/kg/day, an NOAEL (rat [6]; [14]) of 2.13 mg/kg/day and an LEL (rat [6]; [18]) of 0.76 mg/kg/day. The NEL (rat [6]; [18]) was under 0.76 mg/kg/day, the LEL (rat [7]; [16]) was 4.14 mg/kg/day and the LOAEL (rat [7]; [16]) was 4.14 mg/kg/day. For the same compound, the NEL (rat [7]; [16]) was 2.18 mg/kg/day, the NOAEL (rat [7]; [16]) was 2.18 mg/kg/day and the LOAEL (rat [7]; [17]) was 2.18 mg/kg/day. For the same compound, the NOAEL (rat [7]; [17]) was 1.11 mg/kg/day, the LEL (rat [7]; [19]) was 1.11 mg/kg/day and the NEL (rat [7]; [19]) was under 1.11 mg/kg/day. The LEL (rat [8]; [20]) was 4.9 mg/kg/day, the LOAEL (rat [8]; [20]) was 7.5 mg/kg/day and the NEL (rat [8]; [21]) was 2.5 mg/kg/day. For the same compound, the NOAEL (rat [8]; [21]) was 3.7 mg/kg/day, the LEL (rabbit; [22]) was 1000 mg/kg/day and the LOAEL (rabbit; [22]) was 1000 mg/kg/day. For the same compound, the NEL (rabbit; [22]) was 500 mg/kg/day, the NOAEL (rabbit; [22]) was 500 mg/kg/day and the LOAEL (rabbit; group: maternal, systemic / in life observation / body weight / body weight gain + systemic / in life observation / food consumption / food consumption) was 1000 mg/kg/day. The LEL (rabbit; [23]) was 1000 mg/kg/day, the NEL (rabbit; [23]) was 500 mg/kg/day and the NOAEL (rabbit; [23]) was 500 mg/kg/day. For the same compound, the LOAEL (dog [9]; [24]) was 18 mg/kg/day, the NOAEL (dog [9]; [24]) was 2.3 mg/kg/day and the LEL (dog [9]; [25]) was 1.3 mg/kg/day. The NEL (dog [9]; [25]) was under 1.3 mg/kg/day, the LEL (rat [10]; [26]) was 0.56 mg/kg/day and the NEL (rat [10]; [26]) was under 0.56 mg/kg/day. The LOAEL (rat [10]; [14]) was 4.1 mg/kg/day, the NOAEL (rat [10]; [14]) was 1.7 mg/kg/day and the LOAEL (mouse [11]; [14]) was 30 mg/kg/day. The NOAEL (mouse [11]; [14]) was 16 mg/kg/day, the LEL (mouse [11]; [15]) was 12 mg/kg/day and the NEL (mouse [11]; systemic / pathology microscopic / spleen / pigmentation + systemic / pathology microscopic / spleen / hyperplasia) was 5.5 mg/kg/day. It also gave an LEL (dog [12]) of 19 mg/kg/day, an LOAEL (dog [12]) of 19 mg/kg/day and an NEL (dog [12]) of 5 mg/kg/day. It also gave an NOAEL (dog [12]) of 5 mg/kg/day.
